Assay results from patent US20250368628A1, “METHODS AND COMPOUNDS FOR MODULATING INHERITED GENETIC DISEASES” (Design Therapeutics, Inc., priority 2022, published 2025).
Like-named read-outs stand apart in the source and are kept apart here.

Legend:
[1] = tested on: Myotonic Dystrophy 1 affected patient fibroblasts (Coriel GM04602; 1600 CTG repeats); assay: DM1 foci reduction assay (EC50 assay; CAG10-Cy3 FISH, foci per nucleus); assay type: cell-based
In short: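 Foci per nucleus counted by 20× imaging of 4 areas per well, after overnight FISH with 5 nM CAG10-Cy3 and DAPI staining of fixed, permeabilized cells. DM1 fibroblasts (GM04602, 1600 CTG) were dosed 48 h at 37 °C, 8 points, 3-fold dilutions, 3 μM top concentration.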

F35T cells = assay: Foci reduction in FECD (CAG10-Cy3 FISH, foci per nucleus); assay type: cell-based
In short: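 Foci per nucleus were counted by imaging after overnight CAG10-Cy3 FISH at 37 °C (30% formamide, 2×SSC) with DAPI counterstain, on PFA-fixed, ethanol-permeabilized F35T cells. The cells, seeded at 5000 per well in supplemented Opti-MEM, had received 8-point compound dilutions for 48 h at 37 °C.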

[2] = Homo sapiens, Fibroblast; DM1 patient fibroblasts, 48 h treatment, foci per nucleus; read-out: DM1 EC50, 48 h
[3] = F35T cells, 48 h treatment, foci per nucleus; read-out: FECD EC50, 48 h
[4] = Homo sapiens, Fibroblast; DM1 patient fibroblasts, foci per nucleus, 48 h treatment; read-out: DM1 EC50, 48 h
[5] = F35T cells, foci per nucleus, 48 h treatment; read-out: FECD EC50, 48 h

| SMILES | EC50 [1, 2] | EC50 (F35T cells; [3]) | EC50 [1, 4] | EC50 (F35T cells; [5]) |
| --- | --- | --- | --- | --- |
| CCCNC(=O)CCNC(=O)c1nc(NC(=O)c2cc(NC(=O)CCNC(=O)c3nc(NC(=O)CCCNC(=O)c4cc(NC(=O)c5nc(NC(=O)CCNC(=O)c6cc(NC(=O)c7nccn7C)cn6C)cn5C)cn4CCCN)cn3C)cn2C)cn1C [Compound B-272] | 100 to 500 nM | < 100 nM |  |  |
| Cn1cc(NC(=O)c2nc(NC(=O)CCNC(=O)c3cc(NC(=O)c4nccn4C)cn3C)cn2C)cc1C(=O)NCCCC(=O)Nc1cn(C)c(C(=O)NCCC(=O)Nc2cc(C(=O)Nc3cn(C)c(C(=O)NCCC(=O)NCCCO)n3)n(C)c2)n1 [Compound B-52] | < 100 nM | < 100 nM |  |  |
| Cn1cc(NC(=O)c2nc(NC(=O)CCNC(=O)c3cc(NC(=O)c4nccn4C)cn3C)cn2C)cc1C(=O)NCCCC(=O)Nc1cn(C)c(C(=O)NCCC(=O)Nc2cc(C(=O)Nc3cn(C)c(C(=O)NCCC(=O)NC(CO)(CO)CO)n3)n(C)c2)n1 [Compound B-46] | 500 to 1000 nM | 100 to 500 nM |  |  |
| CC(C)N1CCC(C#CC#CC2CCN(CCOCCOCCOCCNC(=O)CCNC(=O)c3nc(NC(=O)c4cc(NC(=O)CCNC(=O)c5nc(NC(=O)CCCNC(=O)c6cc(NC(=O)c7nc(NC(=O)CCNC(=O)c8cc(NC(=O)c9nccn9C)cn8C)cn7C)cn6C)cn5C)cn4C)cn3C)CC2)CC1 [Compound B-124] | 100 to 500 nM | 500 to 1000 nM |  |  |
| CN1CCN(C(=O)CCNC(=O)c2nc(NC(=O)c3cc(NC(=O)CCNC(=O)c4nc(NC(=O)[C@H](N)CCNC(=O)c5cc(NC(=O)c6nc(NC(=O)CCNC(=O)c7cc(NC(=O)c8nccn8C)cn7C)cn6C)cn5C)cn4C)cn3C)cn2C)CC1 [Compound B-405] | > 1000 nM | > 1000 nM |  |  |
| CCCCn1cc(NC(=O)c2nc(NC(=O)CCNC(=O)c3cc(NC(=O)c4nccn4C)cn3C)cn2C)cc1C(=O)NCCCC(=O)Nc1cn(C)c(C(=O)NCCC(=O)Nc2cc(C(=O)Nc3cn(C)c(C(=O)NCCC(=O)N4CCCCC4)n3)n(C)c2)n1 [Compound B-433] |  |  | < 100 nM | < 100 nM |
| Cn1cc(NC(=O)c2nc(NC(=O)CCNC(=O)c3cc(NC(=O)c4nccn4C)cn3C)cn2C)cc1C(=O)NCCCC(=O)Nc1cn(C)c(C(=O)NCCC(=O)Nc2cc(C(=O)Nc3cn(C)c(C(=O)NCCC(=O)NC4COP(=O)(O)OC4)n3)n(C)c2)n1 (stereo not drawn) [Compound B-392] | 500 to 1000 nM | > 1000 nM |  |  |
| CN(C)C(=O)CCNC(=O)c1nc(NC(=O)c2cc(NC(=O)CCNC(=O)c3nc(NC(=O)CCCNC(=O)c4cc(NC(=O)c5nc(NC(=O)CCNC(=O)c6cc(NC(=O)c7nccn7C)cn6C)cn5C)cn4C)cn3C)cn2C)cn1C [Compound B-313] | < 100 nM | < 100 nM |  |  |
| Cn1cc(NC(=O)c2nc(NC(=O)CCNC(=O)c3cc(NC(=O)c4nccn4C)cn3C)cn2C)cc1C(=O)NCCCC(=O)Nc1cn(C)c(C(=O)NCCC(=O)Nc2cc(C(=O)Nc3cn(C)c(C(=O)NCCC(=O)N4CCC(C5CN(C(=O)OC(C)(C)C)C5)CC4)n3)n(C)c2)n1 [Compound B-193] | < 100 nM | < 100 nM |  |  |
| CN(C)CCCCn1cc(NC(=O)c2nc(NC(=O)CCNC(=O)c3cc(NC(=O)c4nccn4C)cn3C)cn2C)cc1C(=O)NCCCC(=O)Nc1cn(C)c(C(=O)NCCC(=O)Nc2cc(C(=O)Nc3cn(C)c(C(=O)NCCC(=O)N4CCCCC4)n3)n(C)c2)n1 [Compound B-428] |  |  | < 100 nM | < 100 nM |
| CC(=O)N1CCC(C#CC#CC2CCN(C(=O)CCNC(=O)c3nc(NC(=O)c4cc(NC(=O)CCNC(=O)c5nc(NC(=O)CCCNC(=O)c6cc(NC(=O)c7nc(NC(=O)CCNC(=O)c8cc(NC(=O)c9nccn9C)cn8C)cn7C)cn6C)cn5C)cn4C)cn3C)CC2)CC1 [Compound B-379] | 100 to 500 nM | < 100 nM |  |  |
| Cn1cc(NC(=O)c2nc(NC(=O)CCNC(=O)c3cc(NC(=O)c4nccn4C)cn3C)cn2C)cc1C(=O)NCCCC(=O)Nc1cn(C)c(C(=O)NCCC(=O)Nc2cc(C(=O)Nc3cn(C)c(C(=O)NCCC(=O)N4CCC(C#CC#CC5CCN(C(=O)OC(C)(C)C)CC5)CC4)n3)n(C)c2)n1 [Compound B-378, Tert-butyl 4-[4-(1-{3-[(1-methyl-4-{1-methyl-4-[3-({1-methyl-4-[4-({1-methyl-4-[1-methyl-4-(3-{[1-methyl-4-(1-methylimidazole-2-amido)pyrrol-2-yl]formamido}propanamido)imidazole-2-amido]pyrrol-2-yl}formamido)butanamido]imidazol-2-yl}formamido)propanamido]pyrrole-2-amido}imidazol-2-yl)formamido]propanoyl}piperidin-4-yl)buta-1,3-diyn-1-yl]piperidine-1-carboxylate] | > 1000 nM | 100 to 500 nM |  |  |
| CCNC(=O)CCNC(=O)c1nc(NC(=O)c2cc(NC(=O)CCNC(=O)c3nc(NC(=O)CCCNC(=O)c4cc(NC(=O)c5nc(NC(=O)CCNC(=O)c6cc(NC(=O)c7nccn7C)cn6C)cn5C)cn4C)cn3C)cn2C)cn1C [Compound B-311] | 100 to 500 nM | < 100 nM |  |  |
| Cn1cc(NC(=O)c2nc(NC(=O)CCNC(=O)c3cc(NC(=O)c4nccn4C)cn3C)cn2C)cc1C(=O)NCCCC(=O)Nc1cn(C)c(C(=O)NCCC(=O)Nc2cc(C(=O)Nc3cn(C)c(C(N)=O)n3)n(C)c2)n1 [Compound B-308] | 100 to 500 nM | < 100 nM |  |  |
| CC(C)CCCN1CCC(C#CC#CC2CCN(CCCCCNC(=O)CCNC(=O)c3nc(NC(=O)c4cc(NC(=O)CCNC(=O)c5nc(NC(=O)CCCNC(=O)c6cc(NC(=O)c7nc(NC(=O)CCNC(=O)c8cc(NC(=O)c9nccn9C)cn8C)cn7C)cn6C)cn5C)cn4C)cn3C)CC2)CC1 [Compound B-185] | > 1000 nM | 100 to 500 nM |  |  |
| CCCNC(=O)CCNC(=O)c1nc(NC(=O)c2cc(NC(=O)CCNC(=O)c3nc(NC(=O)CCCNC(=O)c4cc(NC(=O)c5nc(NC(=O)CCNC(=O)c6cc(NC(=O)c7nccn7C)cn6C)cn5C)cn4CCCCCN)cn3C)cn2C)cn1C [Compound B-286] | 100 to 500 nM | < 100 nM |  |  |
| Cn1cc(NC(=O)c2nc(NC(=O)CCNC(=O)c3cc(NC(=O)c4nccn4C)cn3C)cn2C)cc1C(=O)NCCCC(=O)Nc1cn(C)c(C(=O)NCCC(=O)Nc2cc(C(=O)Nc3cn(C)c(C(=O)NCCC(=O)N4CCC(C5CNC5)CC4)n3)n(C)c2)n1 [Compound B-142] | 100 to 500 nM | 500 to 1000 nM |  |  |
| CCCCCn1cc(NC(=O)c2nc(NC(=O)CCNC(=O)c3cc(NC(=O)c4nccn4C)cn3C)cn2C)cc1C(=O)NCCCC(=O)Nc1cn(C)c(C(=O)NCCC(=O)Nc2cc(C(=O)Nc3cn(C)c(C(=O)NCCC(=O)NCCC)n3)n(C)c2)n1 [Compound B-322] | < 100 nM | 100 to 500 nM |  |  |
| CC(=O)N1CCN(CC2CCN(C(=O)CCNC(=O)c3nc(NC(=O)c4cc(NC(=O)CCNC(=O)c5nc(NC(=O)CCCNC(=O)c6cc(NC(=O)c7nc(NC(=O)CCNC(=O)c8cc(NC(=O)c9nccn9C)cn8C)cn7C)cn6C)cn5C)cn4C)cn3C)CC2)CC1 [Compound B-128] | 100 to 500 nM | < 100 nM |  |  |
| Cn1cc(NC(=O)c2nc(NC(=O)CCNC(=O)c3cc(NC(=O)c4nccn4C)cn3C)cn2C)cc1C(=O)NCCCC(=O)Nc1cn(C)c(C(=O)NCCC(=O)Nc2cc(C(=O)Nc3cn(C)c(C(=O)NCCC(=O)N4CCOCC4)n3)n(C)c2)n1 [Compound B-48] | 100 to 500 nM | 100 to 500 nM |  |  |
| CCCNC(=O)c1cc(NC(=O)CCNC(=O)c2nc(NC(=O)[C@H](N)CCNC(=O)c3cc(NC(=O)c4nc(NC(=O)CCNC(=O)c5cc(NC(=O)c6nccn6C)cn5C)cn4C)cn3C)cn2C)cn1C [Compound B-366] | > 1000 nM | > 1000 nM |  |  |
